Laboratory results taken from patent US20250268855A1, “PHARMACEUTICAL AND NUTRACEUTICAL COMPOSITIONS WITH A COMBINATION OF AMINO ACIDS AND ITS USE IN DISEASES CHARACTERIZED BY LIPID ACCUMULATION IN TISSUES” (FUNDACIÓ EURECAT, priority 2022, published 2025).

What was measured:
[1] = system: hepatocyte cell line (HepG2); assay: In vitro assay of gene expression in hepatocyte cell line; assay type: cell-based, human; settings: HepG2, 24 h; Histidine 10 mM, carnosine 5 mM, cysteine 5 mM, serine 5 mM; vs. control
Description: These concentrations were conserved with the different combinations. Data are expressed as mean±SEM; n=3-4 per condition. *p<0.05; **p<0.01, ***p<0.001 vs. vehicle.
An in vitro assay was also carried out using the hepatocyte cell line (HepG2) to test the effect of different combinations of the supplemented amino acids in hepatic expression of key genes of fatty acid beta-oxidation (carnitine palmitoyltransferase, Cpt1a), inflammation (chemokine (C-C motif) ligand 2, CCL2), lipolysis (hormone-sensitive, HSL; and lipin, LPIN) and lipogenesis (fatty acid synthase, FASN). Gene expression was determined by qPCR as previously indicated (see materials and methods in example 1). […] The Cpt1a enzyme is located in the outer membrane, and it is the key enzyme in the carnitine-dependent transport across the mitochondrial inner membrane. Its deficiency results in a decreased rate of fatty acid beta-oxidation.
Data are depicted in FIG. 7, wherein the level of expression (mRNA) is indicated for any of the supplemented media. […]

[2] = system: mice consumed high saturated fat diet; settings: Mong et al.; cited from earlier work

Structure (SMILES) | Cpt1a mRNA expression (the cited enzyme) [1] | body weight [2] | epididymal fat [2] | hepatic cholesterol levels [2] | hepatic triglyceride levels [2] | hyper-insulinemia [2] | insulin sensitivity [2]
NCCC(=O)N[C@@H](Cc1cnc[nH]1)C(=O)O [carnosine] | trend to reduce the effect | lowered | lowered | lowered | lowered | attenuated | improved
N[C@@H](Cc1c[nH]cn1)C(=O)O [histidine] |  | lowered | lowered | lowered | lowered | attenuated | improved
